Measured values: patent US20050021241A1, “Gain of function sorting for drug discovery and development” (priority 2003, published 2005)

Assays:
[1] = biological target: T1, S3.36 A variant of the 5HT2 A receptor (Homo sapiens, UniProt P28223, S159A); assay: Ca2+i mobilization response (Indo-1, flow cytometry) of cells expressing variant serotonin receptor; format: cell-based
T1 construct: expressed in transfected cells
Text: Step 1: To observe GOF behavior it is necessary to understand the range of compound concentration that activates the wild type receptor (WT). GOF variants will respond to concentrations of the test compound at least 5 fold lower than the minimal concentration that activates the WT. An illustration is shown in FIG. 18 where a dose-response curve for one null function mutant receptor (NF), the serotonin 2 A receptor (5 HT2 A) mutant 5.46, and the WT are shown in the lower graph. The two curves are virtually identical. […] At very low concentrations, only the GOF 3.36 mutant bearing cells are isolated, and the WT and NF 5.46 mutant are only selected as the compound concentration is raised to relatively high concentrations. It will also be necessary to understand the time kinetics of the WT response so that an appropriate time window (TW) region of the response can be selected for the analysis and sort.
FIG. 18 illustrates the results obtained during steps of GOF sorting of variant Human Serotonin Receptor Type 2A populations. Three populations of cells containing one of three versions of the human serotonin receptor type 2A were stained three distinct “colors” recognizable by the FACS. The populations were combined in equal proportions into one population. One mutant is the S3.36 A, the other mutant is the S5.46 A mutant and the third group is the wild type receptor (WT). The cells were also loaded with the Ca^2+i indicator dye, indol, so that receptor-mediated signaling events could be monitored through the Ca^2+i mobilization response. The combined population was stimulated with increasing concentrations of the test compound, naphthyl piperazine, and the percentage of cells within each colored subpopulation showing a threshold Ca^2+i response was quantified. […] The sorted cells were then re-analyzed to evaluate the subpopulation from which they were derived, based on the distinct “color” used to stain each subpopulation. The identity of the sorted populations that were taken from sorting at several different compound concentrations is shown in the bottom half of the figure. […] At the high and low ends of the concentration range there was no selective responsiveness by the S3.36 A variant cells, and the FACS selected each of the populations equally.
GOF sorting enhances drug discovery by providing the ability to identify in a few months the Gain of Function (GOF) receptor variants that normally took years to identify. It was hypothesized that GOF variants could be isolated efficiently from a pool of cells, each expressing a single variant, by sorting responding cells at low concentrations of agonist, using Fluorescence Activated Cell Sorting (FACS). […]

[2] = system: 5 HT2 A receptor cell lines; assay: FACS sorting of responding cells from a mixture of three color-coded 5 HT2 A receptor cell lines (WT, S3.36 A, S5.46 A); format: cell-based, human
Text: FIG. 18 illustrates the results obtained during steps of GOF sorting of variant Human Serotonin Receptor Type 2A populations. Three populations of cells containing one of three versions of the human serotonin receptor type 2A were stained three distinct “colors” recognizable by the FACS. The populations were combined in equal proportions into one population. One mutant is the S3.36 A, the other mutant is the S5.46 A mutant and the third group is the wild type receptor (WT). The cells were also loaded with the Ca^2+i indicator dye, indol, so that receptor-mediated signaling events could be monitored through the Ca^2+i mobilization response. The combined population was stimulated with increasing concentrations of the test compound, naphthyl piperazine, and the percentage of cells within each colored subpopulation showing a threshold Ca^2+i response was quantified. […] The sorted cells were then re-analyzed to evaluate the subpopulation from which they were derived, based on the distinct “color” used to stain each subpopulation. The identity of the sorted populations that were taken from sorting at several different compound concentrations is shown in the bottom half of the figure. […] At the high and low ends of the concentration range there was no selective responsiveness by the S3.36 A variant cells, and the FACS selected each of the populations equally. […]

T1 sequence (P28223 whole entry S159A): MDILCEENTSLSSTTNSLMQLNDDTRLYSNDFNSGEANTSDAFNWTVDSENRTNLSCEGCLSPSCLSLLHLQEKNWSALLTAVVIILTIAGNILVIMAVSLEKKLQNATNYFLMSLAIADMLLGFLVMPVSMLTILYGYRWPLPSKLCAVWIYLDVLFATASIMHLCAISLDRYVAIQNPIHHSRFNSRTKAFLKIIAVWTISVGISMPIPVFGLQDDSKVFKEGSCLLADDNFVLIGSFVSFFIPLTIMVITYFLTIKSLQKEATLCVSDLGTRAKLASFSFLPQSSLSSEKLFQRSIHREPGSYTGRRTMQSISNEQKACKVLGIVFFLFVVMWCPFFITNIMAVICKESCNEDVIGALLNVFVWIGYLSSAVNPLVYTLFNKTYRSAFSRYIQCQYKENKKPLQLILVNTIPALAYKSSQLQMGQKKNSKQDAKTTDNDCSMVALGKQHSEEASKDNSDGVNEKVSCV

Question: What does the source list for c1ccc2c(N3CCNCC3)cccc2c1 [Naphthyl Piperazine]?
Answer: agonist concentration at which cells expressing the S3.36 A variant were becoming activated ([1]; WT and S5.46 A variant not activated at this concentration): 3 nM; fold lower EC50 of S3.36 A variant than the wild type or the S5.46 A variant ([1]; agonist dose-response, S3.36 A vs wild type or S5.46 A 5HT2 A receptor): 1,000 fold; minimum concentration that activates the 3.36 mutant cells, fold lower than that required to activate the WT ([1]; mutant 3.36 vs WT, dose-response curve FIG. 18): more than 100 fold; affinity of S3.36 A variant for the compound compared with S5.46 A and WT ([1]; percentage of cells showing a threshold Ca2+i response, increasing concentrations): greater affinity; share of GOF S3.36 A variant in the sorted population ([2]; 50-100 nM agonist concentration range): 90%; agonist concentration range of selective sorting of GOF variant S3.36 A from wild type and S5.46 A ([2]; FACS sort of responding cells, mixed pool of 3 cell lines): 10 to 300 nM
